How the values were obtained:
[1] = molecular target: T1, human glucocorticoid receptor (GR) complex (Homo sapiens, UniProt P04150); experiment: Glucocorticoid receptor competitive binding assay (fluorescence polarization, TAMRA-labeled dexamethasone probe); settings: compounds of Formula (IA)
T1 construct: made in house; host or cells: insect expression system (baculovirus lysate)
T1 sequence (P04150 1-777): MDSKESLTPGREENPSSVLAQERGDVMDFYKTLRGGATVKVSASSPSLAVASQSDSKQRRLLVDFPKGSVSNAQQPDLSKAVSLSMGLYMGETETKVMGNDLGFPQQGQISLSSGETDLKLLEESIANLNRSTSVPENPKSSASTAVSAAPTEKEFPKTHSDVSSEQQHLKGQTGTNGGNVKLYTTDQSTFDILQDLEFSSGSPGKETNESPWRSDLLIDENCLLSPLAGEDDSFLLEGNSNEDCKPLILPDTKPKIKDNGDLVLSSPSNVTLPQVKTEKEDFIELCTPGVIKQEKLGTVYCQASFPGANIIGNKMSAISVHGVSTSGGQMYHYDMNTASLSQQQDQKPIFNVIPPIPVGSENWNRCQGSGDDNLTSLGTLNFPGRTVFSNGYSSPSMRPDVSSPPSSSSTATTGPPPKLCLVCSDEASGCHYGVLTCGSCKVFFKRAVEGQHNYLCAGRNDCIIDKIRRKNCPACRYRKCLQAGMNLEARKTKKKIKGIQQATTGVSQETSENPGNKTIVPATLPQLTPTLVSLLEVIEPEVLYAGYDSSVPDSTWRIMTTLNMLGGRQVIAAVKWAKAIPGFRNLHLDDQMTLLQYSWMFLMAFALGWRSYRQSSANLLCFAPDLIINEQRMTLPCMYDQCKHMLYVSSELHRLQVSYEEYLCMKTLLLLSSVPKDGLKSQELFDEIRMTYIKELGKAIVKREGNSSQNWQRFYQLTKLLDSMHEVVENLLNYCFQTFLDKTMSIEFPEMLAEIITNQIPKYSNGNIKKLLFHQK
Procedure: Compounds of the invention were evaluated for binding to the steroid receptor by a fluorescence polarization competitive binding assay. Detailed descriptions for preparation of recombinant glucocorticoid receptor (GR) complex used in the assay is described in U.S. patent application Pub.
A. Glucocorticoid Receptor Competitive Binding Assay
Step 1. Characterization of the Fluorescent Probe
The wavelengths for maximum excitation and emission of the fluorescent probe should first be measured. An example of such a probe is rhodamine (TAMRA)-labeled dexamethasone.
The affinity of the probe for the steroid receptor was then determined in a titration experiment. The fluorescence polarization value of the probe in assay buffer was measured on an SLM-8100 fluorometer using the excitation and emission maximum values described above. Aliquots of expression vector lysate were added and fluorescence polarization was measured after each addition until no further change in polarization value was observed. Non-linear least squares regression analysis was used to calculate the dissociation constant of the probe from the polarization values obtained for lysate binding to the probe.
Step 2. Screening for Inhibitors of Probe Binding
This assay uses fluorescence polarization (FP) to quantitate the ability of test compounds to compete with tetramethyl rhodamine (TAMRA)-labeled dexamethasone for binding to a human glucocorticoid receptor (GR) complex prepared from an insect expression system. The assay buffer was: 10 mM TES, 50 mM KCl, 20 mM Na2MoO4.2H2O, 1.5 mM EDTA, 0.04% w/v CHAPS, 10% v/v glycerol, 1 mM dithiothreitol, pH 7.4. Test compounds were dissolved to 1 mM in neat DMSO and then further diluted to 10× assay concentration in assay buffer supplemented with 10% v/v DMSO. Test compounds were serially diluted at 10× assay concentrations in 10% DMSO-containing buffer in 96-well polypropylene plates. Binding reaction mixtures were prepared in 96-well black Dynex microtiter plates by sequential addition of the following assay components to each well: 15 μL of 10× test compound solution, 85 μL of GR-containing baculovirus lysate diluted 1:170 in assay buffer, and 50 μL of 15 nM TAMRA-labeled dexamethasone. Positive controls were reaction mixtures containing no test compound; negative controls (blanks) were reaction mixtures containing 0.7 μM to 2 μM dexamethasone. […] IC50 values were determined by iterative non-linear curve fitting of the FP signal data to a 4-parameter logistic equation.

[2] = system: glucocorticoid receptor function; experiment: one or more of the above assays (GR binding and glucocorticoid receptor cell assays: aromatase, IL-6, TAT, MMTV-Luc, IL-8, ICAM-Luc); format: cell-based; settings: assay not specified per compound

Row | SMILES | activity in the GR binding assay [1] | activity as agonists of the glucocorticoid receptor function in one or more of the above assays [2]
1 | COc1ccc(F)cc1C(C)(C)CC(O)(Cc1cc2ccncc2s1)C(F)(F)F (stereo not drawn) [1,1,1 -Trifluoro-4-(5-fluoro-2-methoxyphenyl)-4-methyl-2-thieno[2,3-c]pyridin-2-ylmethylpentan-2-ol] | potent activity | potent agonists
2 | COc1ccc(C)cc1C(C)(C)CC(O)(Cc1cc2ccccc2[nH]1)C(F)(F)F (stereo not drawn) [1,1,1-Trifluoro-2-(1H-indol-2-ylmethyl)-4-(2-methoxy-5-methylphenyl)-4-methylpentan-2-ol] | potent activity | potent agonists
3 | CC(C)(CC(O)(Cc1cc2ccccc2[nH]1)C(F)(F)F)c1ccccc1C(F)(F)F (stereo not drawn) [1,1,1-Trifluoro-2-(1H-indol-2-ylmethyl)-4-methyl-4-(2-trifluoromethylphenyl)pentan-2-ol] | potent activity | potent agonists
4 | CC(C)(CC(O)(Cc1cc2ccccc2[nH]1)C(F)(F)F)c1ccccn1 (stereo not drawn) [1,1,1-Trifluoro-2-(1H-indol-2-ylmethyl)-4-methyl-4-pyridin-2-ylpentan-2-ol] | potent activity | potent agonists
5 | CC(C)(CC(O)(Cc1cc2ccccc2[nH]1)C(F)(F)F)c1ccccc1F (stereo not drawn) [1,1,1-Trifluoro-4-(2-fluorophenyl)-2-(1H-indol-2-ylmethyl)-4-methylpentan-2-ol] | potent activity | potent agonists
6 | CC(C)(CC(O)(Cc1ccnc2ccccc12)C(F)(F)F)c1ccccc1F (stereo not drawn) [1,1,1-Trifluoro-4-(2-fluorophenyl)-4-methyl-2-quinolin-4-ylmethylpentan-2-ol] | potent activity | potent agonists
7 | COc1ccc(C)cc1C(C)(C)CC(O)(Cc1ccnc2ccccc12)C(F)(F)F (stereo not drawn) [1,1,1-Trifluoro-4-(2-methoxy-5-methylphenyl)-4-methyl-2-quinolin-4-ylmethylpentan-2-ol] | potent activity | potent agonists
8 | Cc1ccc(C(C)(C)CC(O)(Cc2cc3ccccc3[nH]2)C(F)(F)F)cc1F (stereo not drawn) [1,1,1-Trifluoro-4-(3-fluoro-4-methylphenyl)-2-(1H-indol-2-ylmethyl)-4-methylpentan-2-ol] | potent activity | potent agonists
9 | Cc1ccc(C(C)(C)CC(O)(Cc2ccnc3ccccc23)C(F)(F)F)cc1F (stereo not drawn) [1,1,1-Trifluoro-4-(3-fluoro-4-methylphenyl)-4-methyl-2-quinolin-4-ylmethylpentan-2-ol] | potent activity | potent agonists
10 | COc1ccc(F)cc1C(C)(C)CC(O)(Cc1cc2ccc(C(=O)N(C)C)cc2[nH]1)C(F)(F)F (stereo not drawn) [2-[4-(5-Fluoro-2-methoxyphenyl)-2-hydroxy-4-methyl-2-trifluoromethylpentyl]-1H-indole-6-carboxylic acid dimethylamide] | potent activity | –
11 | Cc1ccc(F)cc1C(C)(C)CC(O)(Cc1cc2cc(=O)[nH]cc2[nH]1)C(F)(F)F (stereo not drawn) [2-[4-(5-Fluoro-2-methylphenyl)-2-hydroxy-4-methyl-2-trifluoromethylpentyl]-1,6-dihydropyrrolo[2,3-c]pyridin-5-one] | potent activity | –
12 | Cc1ccc(F)cc1C(C)(C)CC(O)(Cc1cc2cc(=O)n(C)cc2[nH]1)C(F)(F)F (stereo not drawn) [2-[4-(5-Fluoro-2-methylphenyl)-2-hydroxy-4-methyl-2-trifluoromethylpentyl]-6-methyl-1,6-dihydropyrrolo[2,3-c]pyridin-5-one] | potent activity | –
13 | CN(C)c1ccc(C(C)(C)CC(O)(Cc2cc3ccccc3[nH]2)C(F)(F)F)cc1 (stereo not drawn) [4-(4-Dimethylaminophenyl)-1,1,1-trifluoro-2-(1H-indol-2-ylmethyl)-4-methylpentan-2-ol] | potent activity | –
14 | CC(C)(CC(O)(Cc1cc2cnccc2s1)C(F)(F)F)c1cc(Cl)cc2c1OCC2 (stereo not drawn) [4-(5-Chloro-2,3-dihydrobenzofuran-7-yl)-1,1,1-trifluoro-4-methyl-2-thieno[3,2-c]pyridin-2-ylmethylpentan-2-ol] | potent activity | –
15 | COc1ccc(F)cc1C(C)(C)CC(O)(Cc1cc2cc(C(=O)NCCCC(=O)O)ccc2[nH]1)C(F)(F)F (stereo not drawn) [4-({2-[4-(5-Fluoro-2-methoxyphenyl)-2-hydroxy-4-methyl-2-trifluoromethylpentyl]-1H-indole-5-carbonyl}amino)butyric acid] | potent activity | –
16 | CC(C)(CC(O)(Cc1cc2ccccc2[nH]1)C(F)(F)F)c1cccc(-c2ccccc2)c1 (stereo not drawn) [4-Biphenyl-3-yl-1,1,1-trifluoro-2-(1H-indol-2-ylmethyl)-4-methylpentan-2-ol] | potent activity | –
17 | COc1ccc(F)cc1C(C)(C)CC(O)(Cc1cc2cc(C(=O)NCC(=O)O)ccc2[nH]1)C(F)(F)F (stereo not drawn) [({2-[4-(5-Fluoro-2-methoxyphenyl)-2-hydroxy-4-methyl-2-trifluoromethylpentyl]-1H-indole-5-carbonyl}amino)acetic acid] | potent activity | –
18 | CC(C)(CC(O)(Cc1cc2ccc(C(=O)N3CCOCC3)cc2[nH]1)C(F)(F)F)c1cc(F)ccc1O (stereo not drawn) [{2-[4-(5-Fluoro-2-hydroxyphenyl)-2-hydroxy-4-methyl-2-trifluoromethylpentyl]-1H-indol-6-yl}morpholin-4-ylmethanone] | potent activity | –
19 | COc1ccc(F)cc1C(C)(C)CC(O)(Cc1cc2cc(C(=O)N3CCC(O)CC3)ccc2[nH]1)C(F)(F)F (stereo not drawn) [{2-[4-(5-Fluoro-2-methoxyphenyl)-2-hydroxy-4-methyl-2-trifluoromethylpentyl]-1H-indol-5-yl}(4-hydroxypiperidin-1-yl)methanone] | potent activity | –
20 | COc1ccc(F)cc1C(C)(C)CC(O)(Cc1cc2cc(C(=O)N3CCCCC3)ccc2[nH]1)C(F)(F)F (stereo not drawn) [{2-[4-(5-Fluoro-2-methoxyphenyl)-2-hydroxy-4-methyl-2-trifluoromethylpentyl]-1H-indol-5-yl}piperidin-1-ylmethanone] | potent activity | –
21 | COc1ccc(F)cc1C(C)(C)CC(O)(Cc1cc2ccc(C(=O)N3CCOCC3)cc2[nH]1)C(F)(F)F (stereo not drawn) [{2-[4-(5-Fluoro-2-methoxyphenyl)-2-hydroxy-4-methyl-2-trifluoromethylpentyl]-1H-indol-6-yl}morpholin-4-ylmethanone] | potent activity | –

Source: patent US8741897B2, “Glucocorticoid mimetics, methods of making them, pharmaceutical compositions and uses thereof” (Boehringer Ingelheim Pharmaceuticals Inc., priority 2003, dated 2014)
